Test results reported in patent US10696615B2, “Prenylated hydroxystilbenes” (The University of Sydney, priority 2011, dated 2020).

What was measured:
[1] = tested on: 786-0; test: NCI in vitro cancer screen, Renal Cancer; assay type: cell-based, human; details: 786-0
[2] = tested on: NCI-H226; test: NCI in vitro cancer screen, Non-Small Cell Lung Cancer; assay type: cell-based, human; details: NCI-H226
[3] = tested on: OVCAR-3; test: NCI in vitro cancer screen, Ovarian Cancer; assay type: cell-based, human; details: OVCAR-3; for GI50 / CC50: Homo sapiens; for CC50: read-out: LC50 (the source's name)
[4] = tested on: SF-539; test: NCI in vitro cancer screen, CNS Cancer; assay type: cell-based; details: SF-539; for GI50 / CC50: Homo sapiens; for CC50: read-out: LC50 (the source's name)
[5] = tested on: HS 578T; test: NCI in vitro cancer screen, Breast Cancer; assay type: cell-based, human; details: for GI50 / CC50: Homo sapiens; for CC50: read-out: LC50 (the source's name)
[6] = tested on: IGROV1; test: NCI in vitro cancer screen, Ovarian Cancer; assay type: cell-based, human; details: IGROV1; for GI50 / CC50: Homo sapiens, IGROV-1; for CC50: read-out: LC50 (the source's name)
[7] = tested on: SW-620; test: NCI in vitro cancer screen, Colon Cancer; assay type: cell-based, human; details: SW-620; for GI50 / CC50: Homo sapiens; for CC50: read-out: LC50 (the source's name)
[8] = tested on: HL-60 (TB); test: NCI in vitro cancer screen, Leukemia; assay type: cell-based, human; details: HL-60 (TB); for GI50 / CC50: Homo sapiens; for CC50: read-out: LC50 (the source's name)
[9] = tested on: HT29; test: NCI in vitro cancer screen, Colon Cancer; assay type: cell-based, human; details: HT29; for GI50 / CC50: Homo sapiens, HT-29; for CC50: read-out: LC50 (the source's name)
[10] = tested on: A549/ATCC; test: NCI in vitro cancer screen, Non-Small Cell Lung Cancer; assay type: cell-based, human; details: for GI50 / CC50: Homo sapiens; for CC50: read-out: LC50 (the source's name)
[11] = tested on: UO-31; test: NCI in vitro cancer screen, Renal Cancer; assay type: cell-based, human; details: UO-31; for GI50 / CC50: Homo sapiens; for CC50: read-out: LC50 (the source's name)
[12] = tested on: SF-295; test: NCI in vitro cancer screen, CNS Cancer; assay type: cell-based, human; details: SF-295; for GI50 / CC50: Homo sapiens; for CC50: read-out: LC50 (the source's name)
[13] = tested on: SF-268; test: NCI in vitro cancer screen, CNS Cancer; assay type: cell-based, human; details: SF-268; for GI50 / CC50: Homo sapiens; for CC50: read-out: LC50 (the source's name)
[14] = tested on: MCF7; test: NCI in vitro cancer screen, Breast Cancer; assay type: cell-based, human; details: MCF7; for GI50 / CC50: Homo sapiens; for CC50: read-out: LC50 (the source's name)
[15] = tested on: EKVX; test: NCI in vitro cancer screen, Non-Small Cell Lung Cancer; assay type: cell-based, human; details: for GI50 / CC50: Homo sapiens; for CC50: read-out: LC50 (the source's name)
[16] = tested on: RPMI-8226; test: NCI in vitro cancer screen, Leukemia; assay type: cell-based, human; details: RPMI-8226; for GI50 / CC50: Homo sapiens; for CC50: read-out: LC50 (the source's name)
[17] = tested on: K-562; test: NCI in vitro cancer screen, Leukemia; assay type: cell-based, human; details: K-562; for GI50 / CC50: Homo sapiens, K562; for CC50: read-out: LC50 (the source's name)
[18] = tested on: SNB-75; test: NCI in vitro cancer screen, CNS Cancer; assay type: cell-based, human; details: SNB-75; for GI50 / CC50: Homo sapiens; for CC50: read-out: LC50 (the source's name)
[19] = tested on: UACC-257; test: NCI in vitro cancer screen, Melanoma; assay type: cell-based, human; details: UACC-257; for GI50 / CC50: Homo sapiens; for CC50: read-out: LC50 (the source's name)
[20] = tested on: MDA-MB-468; test: NCI in vitro cancer screen, Breast Cancer; assay type: cell-based, human; details: MDA-MB-468; for GI50 / CC50: Homo sapiens; for CC50: read-out: LC50 (the source's name)
[21] = tested on: MDA-MB-435; test: NCI in vitro cancer screen, Melanoma; assay type: cell-based, human; details: MDA-MB-435; for GI50 / CC50: Homo sapiens; for CC50: read-out: LC50 (the source's name)
[22] = tested on: T-47D; test: NCI in vitro cancer screen, Breast Cancer; assay type: cell-based, human; details: for GI50 / CC50: Homo sapiens, T47D; for CC50: read-out: LC50 (the source's name)
[23] = tested on: TK-10; test: NCI in vitro cancer screen, Renal Cancer; assay type: cell-based, human; details: TK-10
[24] = tested on: NCI-H322M; test: NCI in vitro cancer screen, Non-Small Cell Lung Cancer; assay type: cell-based, human
[25] = tested on: A498; test: NCI in vitro cancer screen, Renal Cancer; assay type: cell-based, human; details: A498; for GI50 / CC50: Homo sapiens; for CC50: read-out: LC50 (the source's name)
[26] = tested on: RXF-393; test: NCI in vitro cancer screen, Renal Cancer; assay type: cell-based, human; details: RXF-393; for GI50 / CC50: Homo sapiens; for CC50: read-out: LC50 (the source's name)
[27] = tested on: HOP-62; test: NCI in vitro cancer screen, Non-Small Cell Lung Cancer; assay type: cell-based, human; details: HOP-62; for GI50 / CC50: Homo sapiens; for CC50: read-out: LC50 (the source's name)
[28] = tested on: SN12C; test: NCI in vitro cancer screen, Renal Cancer; assay type: cell-based, human; details: for GI50 / CC50: Homo sapiens; for CC50: read-out: LC50 (the source's name)

Structure (SMILES): CC(C)=CCc1c(O)cc(/C=C/c2ccc(O)c(O)c2)c(CC=C(C)C)c1O [USYDS7, (E)-2,4-di(3-methyl-2-buten-1-yl)-3,3′,4′,5-tetrahydroxystilbene]
- TGI [1]: 4.47 µM
- GI50 ([1]; Homo sapiens): 1.99 µM
- LC50 (50% net cell kill) ([1]; Homo sapiens): 10.2 µM
- GI50 ([2]; Homo sapiens): 2.28 µM
- LC50 (50% lethal concentration) ([2]; Homo sapiens): 28.1 µM
- TGI [2]: 6.24 µM
- GI50 [3]: 1.82 µM
- CC50 [3]: 6.19 µM
- TGI [3]: 3.36 µM
- GI50 [4]: 2.21 µM
- CC50 [4]: 35.2 µM
- TGI [4]: 6.14 µM
- TGI [5]: 8.09 µM
- GI50 [5]: 1.84 µM
- CC50 [5]: 50.9 µM
- GI50 [6]: 3.12 µM
- CC50 [6]: 36.7 µM
- TGI [6]: 8.39 µM
- GI50 [7]: 1.58 µM
- CC50 [7]: 6.42 µM
- TGI [7]: 3.19 µM
- TGI [8]: 5.06 µM
- GI50 [8]: 2.39 µM
- CC50 [8]: 13.8 µM
- TGI [9]: 10.8 µM
- GI50 [9]: 3.64 µM
- CC50 [9]: 45.8 µM
- TGI [10]: 4.06 µM
- GI50 [10]: 1.88 µM
- CC50 [10]: 8.78 µM
- GI50 [11]: 1.6 µM
- CC50 [11]: 7.46 µM
- TGI [11]: 3.46 µM
- GI50 [12]: 3.37 µM
- CC50 [12]: 44.6 µM
- TGI [12]: 11.4 µM
- GI50 [13]: 2.26 µM
- CC50 [13]: 22.7 µM
- TGI [13]: 5.47 µM
- GI50 [14]: 2.1 µM
- CC50 [14]: 57.9 µM
- TGI [14]: 12.0 µM
- TGI [15]: 14.7 µM
- GI50 [15]: 4.25 µM
- CC50 [15]: 44.9 µM
- GI50 [16]: 2.31 µM
- CC50 [16]: 61.1 µM
- TGI [16]: 6.01 µM
- GI50 [17]: 2.14 µM
- CC50 [17]: 17.4 µM
- TGI [17]: 4.78 µM
- GI50 [18]: 2.98 µM
- CC50 [18]: 49.1 µM
- TGI [18]: 12.8 µM
- GI50 [19]: 2.18 µM
- CC50 [19]: 23 µM
- TGI [19]: 5.93 µM
- GI50 [20]: 2.12 µM
- CC50 [20]: 13.9 µM
- TGI [20]: 4.84 µM
- GI50 [21]: 2.29 µM
- CC50 [21]: 31.7 µM
- TGI [21]: 6.47 µM
- TGI [22]: 6.09 µM
- GI50 [22]: 1.88 µM
- CC50 [22]: 43.5 µM
- GI50 ([23]; Homo sapiens): 3.62 µM
- LC50 ([23]; Homo sapiens): 34.3 µM
- TGI [23]: 11.2 µM
- TGI [24]: 18.1 µM
- GI50 ([24]; Homo sapiens): 5.29 µM
- LC50 (50% lethal concentration) ([24]; Homo sapiens): 44.7 µM
- TGI [25]: 23.8 µM
- GI50 [25]: 11.1 µM
- CC50 [25]: 50.8 µM
- GI50 [26]: 1.53 µM
- CC50 [26]: 6.8 µM
- TGI [26]: 3.23 µM
- TGI [27]: 15.0 µM
- GI50 [27]: 3.67 µM
- CC50 [27]: 51.6 µM
- TGI [28]: 3.16 µM
- GI50 [28]: 1.65 µM
- CC50 [28]: 6.03 µM

Structure (SMILES): CC(C)=CCc1c(O)cc(/C=C/c2ccc(O)cc2)c(CC=C(C)C)c1O [USYDS6, (E)-2,4-di(3-methyl-2-buten-1-yl)-3,4′,5-trihydroxystilbene]
- TGI [1]: 6.96 µM
- GI50 ([1]; Homo sapiens): 2.46 µM
- GI50 ([2]; Homo sapiens): 1.47 µM
- TGI [2]: 30.1 µM
- GI50 [3]: 2.1 µM
- CC50 [3]: 8.85 µM
- TGI [3]: 4.31 µM
- GI50 [4]: 4.48 µM
- CC50 [4]: 57.1 µM
- TGI [4]: 17.6 µM
- TGI [5]: 5.29 µM
- GI50 [5]: 1.67 µM
- CC50 [5]: 35.8 µM
- GI50 [6]: 5.23 µM
- CC50 [6]: 54.1 µM
- TGI [6]: 17.7 µM
- GI50 [7]: 1.84 µM
- CC50 [7]: 6.82 µM
- TGI [7]: 3.54 µM
- TGI [8]: 4.83 µM
- GI50 [8]: 2.07 µM
- CC50 [8]: 15.4 µM
- TGI [9]: 17.6 µM
- GI50 [9]: 5.44 µM
- CC50 [9]: 48.3 µM
- TGI [10]: 8.42 µM
- GI50 [10]: 2.69 µM
- CC50 [10]: 33.7 µM
- GI50 [11]: 2.51 µM
- CC50 [11]: 33.5 µM
- TGI [11]: 7.50 µM
- GI50 [12]: 6.78 µM
- CC50 [12]: 53.2 µM
- TGI [12]: 20.8 µM
- GI50 [13]: 2.78 µM
- CC50 [13]: 44.3 µM
- TGI [13]: 8.97 µM
- GI50 [14]: 4.02 µM
- CC50 [14]: 60.5 µM
- TGI [14]: 18.0 µM
- TGI [15]: 21.4 µM
- GI50 [15]: 7.19 µM
- CC50 [15]: 54.4 µM
- GI50 [16]: 2.34 µM
- CC50 [16]: 62 µM
- TGI [16]: 5.61 µM
- GI50 [17]: 1.46 µM
- CC50 [17]: 22.6 µM
- TGI [17]: 4.13 µM
- GI50 [18]: 6.67 µM
- CC50 [18]: 54 µM
- TGI [18]: 21.4 µM
- GI50 [19]: 3.49 µM
- CC50 [19]: 39.8 µM
- TGI [19]: 14.4 µM
- GI50 [20]: 2.3 µM
- CC50 [20]: 26 µM
- TGI [20]: 6.39 µM
- GI50 [21]: 3.37 µM
- CC50 [21]: 42.1 µM
- TGI [21]: 10.8 µM
- TGI [22]: 20.3 µM
- GI50 [22]: 5.03 µM
- CC50 [22]: 57.9 µM
- GI50 ([23]; Homo sapiens): 3.36 µM
- TGI [23]: 9.33 µM
- TGI [24]: 25.5 µM
- GI50 ([24]; Homo sapiens): 1.16 µM
- TGI [25]: 25.0 µM
- GI50 [25]: 11.7 µM
- CC50 [25]: 53.1 µM
- GI50 [26]: 2.15 µM
- CC50 [26]: 18.7 µM
- TGI [26]: 5.39 µM
- TGI [27]: 17.5 µM
- GI50 [27]: 5.11 µM
- CC50 [27]: 44 µM
- TGI [28]: 7.98 µM
- GI50 [28]: 2.85 µM
- CC50 [28]: 30.8 µM
